Data on 43 compounds can be found in patent US5543415A, “Antidepressants” (Kyowa Hakko Kogyo Co., Ltd., priority 1992, dated 1996).

This data set deals with ddY-strain male mice. The data set can be described thus: Acute Toxicity Test (minimum lethal dose, oral). It counts as in vivo. As to conditions: seven days after administration. As to the method:
Test compounds were orally administered to groups of ddY-strain male mice weighing 20±1 g, each group consisting of three mice. Seven days after the administration, minimum lethal dose (MLD) of each compound was determined by observing the mortality.
As for `CCn1c(=O)c2[nH]c(/C=C/c3cccc(F)c3C)nc2n(CC)c1=O` [Compound 180, (E)-1,3-Diethyl-8-(3-fluoro-2-methylstyryl)xanthine], the “MLD (minimum lethal dose)” value is more than 100 mg/kg.

In the case of `CCCn1c(=O)c2nc(/C=C/c3cccc(F)c3)[nH]c2n(CCC)c1=O` [Compound 37, (E)-8-(3-Fluorostyryl)-1,3-dipropylxanthine], the “MLD (minimum lethal dose)” value is on record as more than 100 mg/kg.

Turning to `CCCn1c(=O)c2c(nc(/C=C/c3cccc(Cl)c3)n2C)n(CCC)c1=O` [Compound 40, (E)-8-(3-Chlorostyryl)-7-methyl-1,3-dipropylxanthine], the “MLD (minimum lethal dose)” value was more than 300 mg/kg.

As to `CCCn1c(=O)c2[nH]c(/C=C/c3ccccc3Cl)nc2n(CCC)c1=O` [Compound 41, (E)-8-(2-Chlorostyryl)-1,3-dipropylxanthine], the “MLD (minimum lethal dose)” value is more than 100 mg/kg.

For the compound `CCCn1c(=O)c2c(nc(/C=C/c3cc(C)c(OC)cc3C)n2C)n(CCC)c1=O` [Compound 46, (E)-8-(4-Methoxy-2,5-dimethylstyryl)-7-methyl-1,3-dipropylxanthine], the “MLD (minimum lethal dose)” value is listed as more than 300 mg/kg.

`CCCCn1c(=O)c2nc(/C=C/c3cc(OC)c(OC)c(OC)c3)[nH]c2n(CCCC)c1=O` [Compound 8, (E)-1,3-Dibutyl-8-(3,4,5-trimethoxystyryl)xanthine]: the “MLD (minimum lethal dose)” value is on record as more than 100 mg/kg.

For `CCCn1c(=O)c2nc(/C=C/c3cc(OC)cc(OC)c3)[nH]c2n(CCC)c1=O` [Compound 33, (E)-8-(3,5-Dimethoxystyryl)-1,3-dipropylxanthine], the “MLD (minimum lethal dose)” value is more than 100 mg/kg.

Consider `COc1ccc(/C=C/c2nc3c(c(=O)n(C)c(=O)n3C)n2C)c(OC)c1OC` [Compound 92, (E)-8-(2,3,4-Trimethoxystyryl)caffeine], for which the “MLD (minimum lethal dose)” value is on record as more than 300 mg/kg.

Consider `CCCCn1c(=O)c2c(nc(/C=C/c3cc(OC)c(OC)c(OC)c3)n2C)n(CCCC)c1=O` [Compound 9, (E)-1,3-Dibutyl-7-methyl-8-(3,4,5-trimethoxystyryl)xanthine], for which the “MLD (minimum lethal dose)” value was more than 300 mg/kg.

Regarding `CCn1c(=O)c2[nH]c(/C=C/c3cc(F)cc(F)c3)nc2n(CC)c1=O` [Compound 155, (E)-8-(3,5-Difluorostyryl)-1,3-diethylxanthine], the “MLD (minimum lethal dose)” value is recorded as more than 100 mg/kg.

For `CCCn1c(=O)c2c(nc(/C=C/c3ccc4c(c3)OCO4)n2C)n(CCC)c1=O` [Compound 20, (E)-7-Methyl-8-(3,4-methylenedioxystyryl)-1,3-dipropylxanthine], the “MLD (minimum lethal dose)” value is given as more than 300 mg/kg.

With `CCn1c(=O)c2c(nc(/C=C/c3cccc(OC)c3OC)n2C)n(CC)c1=O` [Compound 76, (E)-8-(2,3-Dimethoxystyryl)-1,3-diethyl-7-methylxanthine], the “MLD (minimum lethal dose)” value is listed as more than 300 mg/kg.

Consider `CCCn1c(=O)c2[nH]c(/C=C/c3ccc(OCC)cc3)nc2n(CCC)c1=O` [Compound 48, (E)-8-(4-Ethoxystyryl)-1,3-dipropylxanthine], for which the “MLD (minimum lethal dose)” value was more than 100 mg/kg.

As for `CCn1c(=O)c2[nH]c(/C=C/c3cc(C(F)(F)F)cc(C(F)(F)F)c3)nc2n(CC)c1=O` [Compound 153, (E)-8-[3,5-Bis(trifluoromethyl)styryl]-1,3-diethylxanthine], the “MLD (minimum lethal dose)” value is on record as more than 100 mg/kg.

On to `CCn1c(=O)c2[nH]c(/C=C/c3cc4c(cc3Br)OCO4)nc2n(CC)c1=O` [Compound 165, (E)-8-(2-Bromo-4,5-methylenedioxystyryl)-1,3-diethylxanthine], for which the “MLD (minimum lethal dose)” value is more than 100 mg/kg.

`CCn1c(=O)c2c(nc(/C=C/c3cccc([N+](=O)[O-])c3)n2C)n(CC)c1=O` [Compound 160, (E)-1,3-Diethyl-7-methyl-8-(3-nitrostyryl)xanthine]: the “MLD (minimum lethal dose)” value is more than 100 mg/kg.

Take `CCn1c(=O)c2[nH]c(/C=C/c3cccc(Oc4ccccc4)c3)nc2n(CC)c1=O` [Compound 191, (E)-1,3-Diethyl-8-(3-phenoxystyryl)xanthine]: the “MLD (minimum lethal dose)” value was more than 100 mg/kg.

In the case of `CCn1c(=O)c2c(nc(/C=C/c3cccc(Cl)c3)n2C)n(CC)c1=O` [Compound 132, (E)-8-(3-Chlorostyryl)-1,3-diethyl-7-methylxanthine], the “MLD (minimum lethal dose)” value is recorded as more than 300 mg/kg.

`CCCn1c(=O)c2[nH]c(/C=C/c3ccc(OC)c(C)c3OC)nc2n(CCC)c1=O` [Compound 15, (E)-8-(2,4-Dimethoxy-3-methylstyryl)-1,3-dipropylxanthine]: the “MLD (minimum lethal dose)” value was more than 100 mg/kg.

As to `CCCn1c(=O)c2[nH]c(/C=C/c3cc(C)c(OC)cc3C)nc2n(CCC)c1=O` [Compound 45, (E)-8-(4-Methoxy-2,5-dimethylstyryl)-1,3-dipropylxanthine], the “MLD (minimum lethal dose)” value is more than 300 mg/kg.

Regarding `CCn1c(=O)c2[nH]c(/C=C/c3ccc(OC)c(F)c3)nc2n(CC)c1=O` [Compound 172, (E)-1,3-Diethyl-8-(3-fluoro-4-methoxystyryl)xanthine], the “MLD (minimum lethal dose)” value was more than 100 mg/kg.

On to `CCn1c(=O)c2[nH]c(/C=C/c3cccc(F)c3)nc2n(CC)c1=O` [Compound 127, (E)-1,3-Diethyl-8-(3-fluorostyryl)xanthine], for which the “MLD (minimum lethal dose)” value is given as more than 100 mg/kg.

With `CCn1c(=O)c2c(nc(/C=C/c3ccc(Br)cc3)n2C)n(CC)c1=O` [Compound 142, (E)-8-(4-Bromostyryl)-1,3-diethyl-7-methylxanthine], the “MLD (minimum lethal dose)” value is more than 100 mg/kg.

In the case of `CCn1c(=O)c2c(nc(/C=C/c3ccc4c(c3)OCO4)n2C)n(CC)c1=O` [Compound 88, (E)-1,3-Diethyl-7-methyl-8-(3,4-methylenedioxystyryl)xanthine], the “MLD (minimum lethal dose)” value is reported as more than 300 mg/kg.

Turning to `CCn1c(=O)c2[nH]c(/C=C/c3ccc(N(C)C)cc3)nc2n(CC)c1=O` [Compound 169, (E)-8-[4-(N,N-Dimethylamino)styryl]-1,3-diethylxanthine], the “MLD (minimum lethal dose)” value is listed as more than 100 mg/kg.

As for `CCCn1c(=O)c2c(nc(/C=C/c3ccc(C)c(C)c3)n2C)n(CCC)c1=O` [Compound 32, (E)-8-(3,4-Dimethylstyryl)-7-methyl-1,3-dipropylxanthine], the “MLD (minimum lethal dose)” value is more than 300 mg/kg.

In the case of `Cn1c(=O)c2c(nc(/C=C/c3ccc4c(c3)OCO4)n2C)n(C)c1=O` [Compound 96, (E)-8-(3,4-Methylenedioxystyryl)caffeine], the “MLD (minimum lethal dose)” value is recorded as more than 300 mg/kg.

As to `CCn1c(=O)c2[nH]c(/C=C/c3cccc([N+](=O)[O-])c3)nc2n(CC)c1=O` [Compound 159, (E)-1,3-Diethyl-8-(3-nitrostyryl)xanthine], the “MLD (minimum lethal dose)” value is on record as more than 100 mg/kg.

As for `CCn1c(=O)c2c(nc(/C=C/c3cccc(Oc4ccccc4)c3)n2C)n(CC)c1=O` [Compound 192, (E)-1,3-Diethyl-7-methyl-8-(3-phenoxystyryl)xanthine], the “MLD (minimum lethal dose)” value is reported as more than 100 mg/kg.

For the compound `CCn1c(=O)c2c(nc(/C=C/c3ccc(OCCCCBr)cc3)n2C)n(CC)c1=O` [Compound 186, (E)-8-[4-(4-Bromobutoxy)styryl]-1,3-diethyl-7-methylxanthine], the “MLD (minimum lethal dose)” value is on record as more than 100 mg/kg.

For `CCn1c(=O)c2c(nc(/C=C/c3ccc(-c4ccccc4)cc3)n2C)n(CC)c1=O` [Compound 171, (E)-1,3-Diethyl-7-methyl-8-(4-phenylstyryl)xanthine], the “MLD (minimum lethal dose)” value was more than 100 mg/kg.

Turning to `CCCCOc1ccc(/C=C/c2nc3c([nH]2)c(=O)n(CC)c(=O)n3CC)cc1` [Compound 147, (E)-8-(4-Butoxystyryl)-1,3-diethylxanthine], the “MLD (minimum lethal dose)” value is more than 100 mg/kg.

On to `COc1ccc(/C=C/c2nc3c([nH]2)c(=O)n(C)c(=O)n3C)c(OC)c1C` [Compound 103, (E)-8-(2,4-Dimethoxy-3-methylstyryl)theophylline], for which the “MLD (minimum lethal dose)” value is given as more than 100 mg/kg.

For the compound `CCCOc1ccc(/C=C/c2nc3c(c(=O)n(CCC)c(=O)n3CCC)n2C)cc1` [Compound 51, (E)-7-Methyl-8-(4-propoxystyryl)-1,3-dipropylxanthine], the “MLD (minimum lethal dose)” value is reported as more than 300 mg/kg.

Consider `CCCn1c(=O)c2[nH]c(/C=C/c3ccc(C)c(C)c3)nc2n(CCC)c1=O` [Compound 31, (E)-8-(3,4-Dimethylstyryl)-1,3-dipropylxanthine], for which the “MLD (minimum lethal dose)” value was more than 100 mg/kg.

As to `CCn1c(=O)c2[nH]c(/C=C/c3ccc(C(F)(F)F)cc3)nc2n(CC)c1=O` [Compound 135, (E)-1,3-Diethyl-8-(4-trifluoromethylstyryl)xanthine], the “MLD (minimum lethal dose)” value is reported as more than 100 mg/kg.

Consider `CCn1c(=O)c2[nH]c(/C=C/c3ccc(Br)cc3)nc2n(CC)c1=O` [Compound 141, (E)-8-(4-Bromostyryl)-1,3-diethylxanthine], for which the “MLD (minimum lethal dose)” value is recorded as more than 100 mg/kg.

On to `CCn1c(=O)c2c(nc(/C=C/c3cccc(OC(F)(F)F)c3)n2C)n(CC)c1=O` [Compound 144, (E)-1,3-Diethyl-7-methyl-8-(3-trifluoromethoxystyryl)xanthine], for which the “MLD (minimum lethal dose)” value is given as more than 100 mg/kg.

Turning to `CCn1c(=O)c2c(nc(/C=C/c3ccc(O)c(O)c3)n2C)n(CC)c1=O` [Compound 182, (E)-8-(3,4-Dihydroxystyryl)-1,3-diethyl-7-methylxanthine], the “MLD (minimum lethal dose)” value is reported as more than 100 mg/kg.

Turning to `C=CCn1c(=O)c2nc(/C=C/c3cc(OC)c(OC)c(OC)c3)[nH]c2n(CC=C)c1=O` [Compound 12, (E)-1,3-diallyl-8-(3,4,5-trimethoxystyryl)xanthine], the “MLD (minimum lethal dose)” value was more than 300 mg/kg.

Take `CCCn1c(=O)c2c(nc(/C=C/c3ccc(OC)cc3OC)n2C)n(CCC)c1=O` [Compound 26, (E)-8-(2,4-Dimethoxystyryl)-7-methyl-1,3-dipropylxanthine]: the “MLD (minimum lethal dose)” value is more than 300 mg/kg.

Consider `CCn1c(=O)c2[nH]c(/C=C/c3ccc4c(c3)OCCO4)nc2n(CC)c1=O` [Compound 89, (E)-8-[2-(1,4-Benzodioxan-6-yl)vinyl]-1,3-diethylxanthine], for which the “MLD (minimum lethal dose)” value is more than 100 mg/kg.

Consider `CCCn1c(=O)c2c(nc(/C=C/c3cc(OC)c(OC)cc3Br)n2C)n(CCC)c1=O` [Compound 59, (E)-8-(2-Bromo-4,5-dimethoxystyryl)-7-methyl-1,3-dipropylxanthine], for which the “MLD (minimum lethal dose)” value was more than 300 mg/kg.
